The values below come from paper PMC12667295, “A surrogate barrier model for high-throughput blood-brain barrier permeability prediction: integrating LLC-PK1-MOCK/MDR1 Cells and lysosomal trapping correction” (Drug Delivery, 2025).

Each structure is given as a SMILES string. Like-named read-outs stand apart in the source and are kept apart here.

One series is described as follows: in vivo. Conditions: rat. An excerpt: In vivo unbound brain distribution data (Kp,uu,Brain) for 16 drugs and total brain distribution data (Kp,Brain) for 16 drugs was acquired from literature. […] For each tested compound, fifteen rats were randomly divided into five groups of three rats each. […] The time of execution of the rats by CO2 inhalation after administration was optimized according to the in vivo elimination rate to achieve five concentrations of different time points. After the rats were euthanized, cardiac puncture was performed immediately to remove as much whole blood as possible (~7 ml) from the systemic circulation (Quantitatively aliquot 0.2 ml of whole blood for the determination of drug concentration in plasma). Afterwards, the brain tissue was collected immediately and rinsed repeatedly with ice-cold saline 3 times. Then, the surface saline was blotted dry with clean filter paper to remove as much residual drug in the blood vessels as possible. Plasma samples were prepared by centrifugation of the blood samples at 2,500 g for 10 minutes at 4 °C. All brain samples were homogenized by adding 4-fold volume water. All samples were stored at -40 °C before LC-MS/MS analysis. […] The brain tissue partition coefficient (Kp, brain) and brain-to-plasma unbound drug partition ratio (Kp,uu, brain) are calculated according to the following formulas, respectively: Kp,brain=AUC(0−∞,brain)/AUC(0−∞,plasma)Kp,uu,brain=Kp,brain×(fu,tissue/fu,plasma)
Free brain-to-plasma distribution coefficients (Kp,uu,brain) of 41 drugs. Brain distribution coefficients (Kp,uu,brain) were calculated for 41 drugs. […] Plasma and brain concentration-time profiles were generated, and AUC(0-t) values for both matrices were calculated using WinNolin 8.1. Kp,brain was derived as the ratio of brain-to-plasma AUC(0-t).
Kp,uu,brain values were computed by normalizing Kp,brain to unbound fractions (fu,plasma and fu,brain).

On the set-up of series [1]: method as in Internal data. The note with it: footnote a; ref Internal data; cited from earlier work.
The conditions of series [2]: cited from earlier work.
For series [3] the following is noted: footnote a; ref Internal data; cited from earlier work.
The nature of series [4]: Bidirectional transport across LLC-PK1 MOCK monolayer (Transwell).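 As to all read-outs here: compound quantified by LC-MS/MS in donor and receiver wells, efflux ratio as B-A over A-B Papp, recovery relative to initial donor amount.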 The note with it: pig; for Papp A→B at 2 h, 2 µM: LLC-PK1, pH 7.4, Papp A-B, LLC-PK1 MOCK, mean ± s, n = 3, BLQ = below 2 nM.
Experimental: (§1) Cells were passaged at 80−90% confluence (every 2−3 days) using trypsin-EDTA solution. […] The culture medium was replaced every other day, including 200 µL culture medium in the apical and 850 µL cell culture medium in the basolateral side. LLC-PK1 MOCK cells were used at passages of 3−30. LLC-PK1-MDR1 cells were cultured and passaged in the same manner as LLC-PK1 cells except at the density of 1 × 10^4 cells per well. LLC-PK1-MDR1 cells were used at passages of 3−25. For LLC-PK1 MOCK cells and LLC-PK1-MDR1 cells, the experiments were performed on the 4th and 7th day after seeding.
Samples were collected from the donor well at the start of the incubation (50 µL) as C0, and from the donor and receiver wells at the end of the incubation (50 µL). All samples were stored at - 40 °C for LC-MS/MS analysis.
(§2) Bidirectional transport experiments. […] The transwell experiments were conducted following above-mentioned procedure. […] When the recovery rate of the tested drug is below 80%, the possibility of intracellular accumulation should be considered. The polycarbonate (PC) membrane where cells are grown should be carefully peeled off from the cell culture medium and placed in 100 µL of HBSS buffer solution. […] The process was carried out on ice to prevent heat-induced degradation, applying a power in the range of 300 W for a total duration of 20 minutes. Thereafter, a quantitative analysis of the intracellular drug was conducted, and the drug recovery rate was recalculated based on this analysis.
(§3) The apparent permeability coefficient (Papp, cm/s) was calculated for each transport direction, A-B and B-A, using the following equation: Papp=dQ/dt×1/A×C0 where dQ/dt is the permeation rate (µmol/s), A is the surface area of the insert (0.33 cm^2, Corning), and C0 is the initial donor concentration (µM).
(§4) The efflux ratio (ER) is calculated as the ratio of Papp (B-A)/Papp (A-B). Recovery=TRcumrf+Cdf×VD/Cdi×VD×100% Where TRcumrf is the cumulative transported mass in the receiver chamber at the end of the incubation (nmol), Cdf is the concentration of the drug in the donor chamber at the end of the incubation (μM), VD is the volume of the donor chamber (mL), and Cdi is the initial concentration of the drug in the donor chamber (μM).
(§5) The method of the bidirectional transport experiment was the same as before.
Series [5] relates to P-gp (human MDR1). The series can be described thus: Bidirectional transport across LLC-PK1-MDR1 monolayer stably expressing human MDR1 (P-gp) (Transwell).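 Also: 2 h incubation at 37 °C, receiver HBSS with 10 mM Hepes plus 1% BSA, LC-MS/MS of donor and receiver, recovery as receiver plus donor amount over initial donor amount.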 Conditions: pig.
Experimental: (§6) The overexpression and functional activity of P-glycoprotein (P-gp) in the LLC-PK1-MDR1 cells were rigorously validated through multiple methods.
as §1
(§7) Monitoring permeability of positive control drugs. […] Samples were collected from the donor well at the start of the incubation (50 µL) as C0, and from the donor and receiver wells at the end of the incubation (50 µL). All samples were stored at - 40 °C for LC-MS/MS analysis.
as §2, §3, §4, §5
The nature of the next series: in vitro. Conditions: pig, LLC-PK1 MOCK cell monolayer (Transwell), pH 7.4.
For series [6], the system named is P-gp (human MDR1). Briefly: in vitro. Conditions: pig, LLC-PK1, pH 7.4.
Experimental: as §6, §1, §7, §2, §3, §4, §5
Series [7] has as its system LLC-PK1-MDR1 cells.
Experimental: as §6, §1, §7, §2, §3, §4, §5
Series [8] relates to LLC-PK1-MDR1 cells. The series can be described thus: Bidirectional transport across LLC-PK1-MDR1 monolayer stably expressing human MDR1 (P-gp) (Transwell).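 Also: 2 h incubation at 37 °C, receiver HBSS with 10 mM Hepes plus 1% BSA, LC-MS/MS of donor and receiver, recovery as receiver plus donor amount over initial donor amount.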 Conditions: LLC-PK1-MDR1, with 5 μM tariquidar vs without.
Experimental: as §6, §1, §7, §2, §3, §4, §5

The compound `Cc1cccc([C@H](C)c2cnc[nH]2)c1C` [Dexmedetomidine] gave a Kp uu in the series “in vivo” of 2.21. In series [1], the “Protein binding in brain tissue” value is 86.7^a %. In series [2] (footnote a, ref Internal data), the “Protein binding in plasma” value is on record as 95.2^a %. Moreover, the “Kp, Brain” value in [3] is reported as 0.80^a. Also, the Papp B→A (as a rule, the apparent permeability from the basolateral to the apical side of a cell layer) at 2 h, 2 µM in [4] (LLC-PK1, pH 7.4) worked out at 35.2 ± 2.56 ×10⁻⁶ cm/s; in the series on P-gp (human MDR1) [5] (LLC-PK1, pH 7.4) it was 29.1 ± 3.62 ×10⁻⁶ cm/s. Further, the Papp A→B – broadly, how fast a substance crosses the layer from the apical side – at 2 h, 2 µM in series [4] came out at 30.8 ± 0.61 ×10⁻⁶ cm/s; in the series with P-gp (human MDR1) [5] (LLC-PK1, pH 7.4, Papp A-B, LLC-PK1-MDR1, 2 µM, 2 h, mean ± s, n = 3), 30.2 ± 3.4 ×10⁻⁶ cm/s.

As to `COc1ccc2[nH]cc(CCNC(C)=O)c2c1` [Melatonin], in “in vivo”, the Kp uu was 0.575. Besides, in series [1], the “Protein binding in brain tissue” value is 30.0^a %. Moreover, the recovery at 2 h, 2 µM in “in vitro” worked out at 105 ± 2.95%; in the series on P-gp (human MDR1) [6], 93.1 ± 1.67%. Also, the “Protein binding in plasma” value in [2] (ref Le Quellec et al. [1994]) is 33.0%. The “Kp, Brain” value in [3] is on record as 0.5^a. In addition, the Papp B→A at 2 h, 2 µM in series [4] (LLC-PK1, pH 7.4) was 20.6 ± 0.92 ×10⁻⁶ cm/s; with P-gp (human MDR1) [5] (LLC-PK1, pH 7.4) it was 21.7 ± 1.08 ×10⁻⁶ cm/s. Moreover, the efflux ratio (commonly a quotient of directional permeabilities that is used to spot active efflux) at 2 h, 2 µM amounted to 0.92 in [4] (LLC-PK1, pH 7.4) and 1.02 in the series with P-gp (human MDR1) [5] (LLC-PK1, pH 7.4). Further, the Papp A→B at 2 h, 2 µM was 22.4 ± 0.51 ×10⁻⁶ cm/s in series [4] and 20.8 ± 1.43 ×10⁻⁶ cm/s with P-gp (human MDR1) [5] (LLC-PK1, pH 7.4).

The compound `C[C@H]1O[C@@H](O[C@H]2[C@@H](O)C[C@H](O[C@H]3[C@@H](O)C[C@H](O[C@H]4CC[C@@]5(C)[C@H](CC[C@@H]6[C@@H]5C[C@@H](O)[C@]5(C)[C@@H](C7=CC(=O)OC7)CC[C@]65O)C4)O[C@@H]3C)O[C@@H]2C)C[C@H](O)[C@@H]1O` [Digoxin] registered a recovery with LLC-PK1-MDR1 cells [7] of 109 ± 16%. Further, the recovery at 2 h, 2 µM in the series “in vitro” amounted to 95 ± 5.24%. Moreover, the basolateral-to-apical permeability (Papp B→A) at 2 h, 2 µM in series [4] (LLC-PK1, pH 7.4) amounted to 1.75 ± 0.07 ×10⁻⁶ cm/s; in the series on P-gp (human MDR1) [5] (LLC-PK1, pH 7.4), 7.79 ± 0.91 ×10⁻⁶ cm/s. Also, the Papp – broadly, the rate of passage across a membrane or cell layer, normalised by area and donor concentration – at 2 h, 2 µM in series [4] (LLC-PK1, pH 7.4) amounted to 2.17 ×10⁻⁶ cm/s; in series [4] (LLC-PK1, pH 7.4, with tariquidar 5 µM (P-gp inhibitor)), 2.1 ×10⁻⁶ cm/s. For the same compound, the Papp A→B at 2 h, 2 µM in series [4] is 1.91 ± 0.13 ×10⁻⁶ cm/s; in the series with P-gp (human MDR1) [5] (LLC-PK1, pH 7.4), 1.15 ± 0.28 ×10⁻⁶ cm/s. In the series on LLC-PK1-MDR1 cells [8], the “increase in apical-to-basolateral (A→B) permeability” value is listed as 3.97 fold.
